The test system of one assay is HCV 1b-377-neo replicon cells. Briefly: HCV replicon assay, HCV 1b-377-neo replicon cells (1b FRET). It is filed as cell-based, Hepatitis C virus genotype 1b. As to conditions: HCV 1b-377-neo replicon cells; HCV 1b genotype; read-out: EC50 range against HCV 1b (Table 2, Range). Summed up: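 Compounds were tested in genotype 1b subgenomic replicon cells carrying a neomycin marker, alongside a matched replicon line with an NS5A Y2065H substitution that confers resistance to a reference NS5A inhibitor.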
As usually defined, the EC50 is the midpoint of the concentration-response curve. As for `CN(C)C(C(=O)N1CCCC1c1nc(-c2ccc(-c3ccc(-c4cnc(C5CCCN5C(=O)Cc5csc6ccccc56)[nH]4)cc3)cc2)c[nH]1)c1ccccc1` [Example 94-54, (1R)-2-((2S)-2-(5-(4′-(2-((2S)-1-(1-benzothiophen-3-ylacetyl)-2-pyrrolidinyl)-1H-imidazol-5-yl)-4-biphenylyl)-1H-imidazol-2-yl)-1-pyrrolidinyl)-N,N-dimethyl-2-oxo-1-phenylethanamine], the EC50 is 0.001 to 0.999 nM.

The same assay, now with this note: Hepatitis C virus, HCV 1b-377-neo replicon cells; HCV 1b genotype; read-out: EC50 range against HCV 1b (Table 2, Range).
Consider `CN(C)[C@@H](C(=O)N1CCC[C@H]1c1ncc(-c2ccc(-c3ccc(-c4cnc([C@@H]5CCCN5C(=O)Cc5ccc(F)cc5)[nH]4)cc3)cc2)[nH]1)c1ccccc1` [Example 94-53, (1R)-2-((2S)-2-(5-(4′-(2-((2S)-1-((4-fluorophenyl)acetyl)-2-pyrrolidinyl)-1H-imidazol-5-yl)-4-biphenylyl)-1H-imidazol-2-yl)-1-pyrrolidinyl)-N,N-dimethyl-2-oxo-1-phenylethanamine], for which the EC50 lay in the range of 0.001 to 0.999 nM.

With `COC(=O)N[C@H](C(=O)N1CCC[C@H]1c1ncc(-c2ccc(-c3ccc(-c4cnc([C@@H]5CCCN5C(=O)[C@H](NC5=NCCN5)C(C)C)[nH]4)cc3)cc2)[nH]1)C1CC1` [cj-11o, methyl ((1S)-1-cyclopropyl-2-((2S)-2-(5-(4′-(2-((2S)-1-(N-(4,5-dihydro-1H-imidazol-2-yl)-D-valyl)-2-pyrrolidinyl)-1H-imidazol-5-yl)-4-biphenylyl)-1H-imidazol-2-yl)-1-pyrrolidinyl)-2-oxoethyl)carbamate], the concentration giving a half-maximal response (EC50) was in the range of 1 to 99 nM. The same measure, in the same setting: the result for `COC(=O)N[C@@H](C)C(=O)N1CCC[C@H]1c1ncc(-c2ccc(-c3ccc(-c4cnc([C@@H]5CCCN5C(=O)[C@@H]5CC(=O)N5)[nH]4)cc3)cc2)[nH]1` [cj-48] reads 100 to 999 nM.

As to `CCN(CC)[C@@H](C(=O)N1CCC[C@H]1c1ncc(-c2ccc(-c3ccc(-c4cnc([C@@H]5CCCN5C(=O)[C@@H]5CCC[C@H]5NC(=O)OC)[nH]4)cc3)cc2)[nH]1)c1ccccc1` [cj-109, methyl ((1R,2R)-2-(((2S)-2-(5-(4′-(2-((2S)-1-((2R)-2-(diethylamino)-2-phenylacetyl)-2-pyrrolidinyl)-1H-imidazol-5-yl)-4-biphenylyl)-1H-imidazol-2-yl)-1-pyrrolidinyl)carbonyl)cyclopentyl)carbamate], the half-maximal effective concentration (EC50) fell in the range of 0.001 to 0.999 nM.

In the case of `CC(=O)OC(C(=O)N1CCC[C@H]1c1ncc(-c2ccc(-c3ccc(-c4cnc([C@@H]5CCCN5C(=O)[C@@H](c5ccccc5)N5CCCCC5)[nH]4)cc3)cc2)[nH]1)c1ccccc1` (stereo in doubt) [Example 107-21, (1R)-2-oxo-1-phenyl-2-((2S)-2-(5-(4′-(2-((2S)-1-((2R)-2-phenyl-2-(1-piperidinyl)acetyl)-2-pyrrolidinyl)-1H-imidazol-5-yl)-4-biphenylyl)-1H-imidazol-2-yl)-1-pyrrolidinyl)ethyl acetate], the EC50 was in the range of 0.001 to 0.999 nM. As to `COC(=O)N[C@@H](C(=O)N1CCC[C@H]1c1ncc(-c2ccc(-c3ccc(-c4cnc([C@@H]5CCCN5C(=O)N5CCOCC5)[nH]4)cc3)cc2)[nH]1)c1ccccc1` [Example 78, methyl ((1R)-2-((2S)-2-(5-(4′-(2-((2S)-1-(4-morpholinylcarbonyl)-2-pyrrolidinyl)-1H-imidazol-5-yl)-4-biphenylyl)-1H-imidazol-2-yl)-1-pyrrolidinyl)-2-oxo-1-phenylethyl)carbamate], the EC50 lay in the range of 0.001 to 0.999 nM.

In the case of `COC(=O)N[C@@H](C(=O)N1CCC[C@H]1c1ncc(-c2ccc(-c3ccc(-c4cnc([C@@H]5CCCN5C(=O)CCC(C)=O)[nH]4)cc3)cc2)[nH]1)c1ccccc1` [Example 84-39, methyl ((1R)-2-oxo-2-((2S)-2-(5-(4′-(2-((2S)-1-(4-oxopentanoyl)-2-pyrrolidinyl)-1H-imidazol-5-yl)-4-biphenylyl)-1H-imidazol-2-yl)-1-pyrrolidinyl)-1-phenylethyl)carbamate], the concentration giving a half-maximal response (EC50) was in the range of 0.001 to 0.999 nM.

Regarding `CN(C)[C@@H](C(=O)N1CCC[C@H]1c1ncc(-c2ccc(-c3ccc(-c4cnc([C@@H]5CCCN5C(=O)Cc5cccc(O)c5)[nH]4)cc3)cc2)[nH]1)c1ccccc1` [Example 94-13, 3-(2-((2S)-2-(5-(4′-(2-((2S)-1-((2R)-2-(dimethylamino)-2-phenylacetyl)-2-pyrrolidinyl)-1H-imidazol-5-yl)-4-biphenylyl)-1H-imidazol-2-yl)-1-pyrrolidinyl)-2-oxoethyl)phenol], the EC50 was in the range of 0.001 to 0.999 nM. Regarding `COC(=O)N[C@H](C(=O)N1CCC[C@H]1c1ncc(-c2ccc(-c3ccc(-c4cnc([C@@H]5CCCN5C(=O)[C@H](NC5=NCCN5)C(C)C)[nH]4)cc3)cc2)[nH]1)C(C)C` [cj-11n, methyl ((1S)-1-(((2S)-2-(5-(4′-(2-((2S)-1-(N-(4,5-dihydro-1H-imidazol-2-yl)-D-valyl)-2-pyrrolidinyl)-1H-imidazol-5-yl)-4-biphenylyl)-1H-imidazol-2-yl)-1-pyrrolidinyl)carbonyl)-2-methylpropyl)carbamate], the EC50 fell in the range of 1 to 99 nM.

As for `CN[C@H](C(=O)N1CCC[C@H]1c1nc(-c2ccc(-c3ccc(-c4cnc([C@@H]5CCCN5C(=O)[C@@H](NC)C(C)C)[nH]4)cc3)cc2)c[nH]1)C(C)C` [Example F34, (2S)-N,3-dimethyl-1-((2S)-2-(4-(4′-(2-((2S)-1-((2S)-3-methyl-2-(methylamino)butanoyl)-2-pyrrolidinyl)-1H-imidazol-5-yl)-4-biphenylyl)-1H-imidazol-2-yl)-1-pyrrolidinyl)-1-oxo-2-butanamine], the EC50 is 1 to 99 nM. Still for that read-out and setting: the result for `COC(=O)N[C@@H](C(=O)N1CCC[C@H]1c1ncc(-c2ccc(-c3ccc(-c4cnc([C@@H]5CCCN5C(=O)C5CC5)[nH]4)cc3)cc2)[nH]1)c1ccccc1` [Example 33, methyl ((1R)-2-((2S)-2-(5-(4′-(2-((2S)-1-(cyclopropylcarbonyl)-2-pyrrolidinyl)-1H-imidazol-5-yl)-4-biphenylyl)-1H-imidazol-2-yl)-1-pyrrolidinyl)-2-oxo-1-phenylethyl)carbamate] reads 0.001 to 0.999 nM; that for `COC(=O)N[C@@H](C)C(=O)N1CCC[C@H]1c1ncc(-c2ccc(-c3ccc(-c4cnc([C@@H]5CCCN5C(=O)[C@H](Cc5cscn5)NC(=O)OC)[nH]4)cc3)cc2)[nH]1` [cj-81, methyl ((1S)-2-((2S)-2-(5-(4′-(2-((2S)-1-(N-(methoxycarbonyl)-L-alanyl)-2-pyrrolidinyl)-1H-imidazol-5-yl)-4-biphenylyl)-1H-imidazol-2-yl)-1-pyrrolidinyl)-2-oxo-1-(1,3-thiazol-4-ylmethyl)ethyl)carbamate], 0.001 to 0.999 nM; that for `COC(=O)N[C@@H](Cn1cccn1)C(=O)N1CCC[C@H]1c1ncc(-c2ccc(-c3ccc(-c4cnc([C@@H]5CCCN5C(=O)[C@@H](NC(=O)OC)C(C)C)[nH]4)cc3)cc2)[nH]1` [cj-38, methyl ((1S)-1-(((2S)-2-(5-(4′-(2-((2S)-1-((2S)-2-((methoxycarbonyl)amino)-3-(1H-pyrazol-1-yl)propanoyl)-2-pyrrolidinyl)-1H-imidazol-5-yl)-4-biphenylyl)-1H-imidazol-2-yl)-1-pyrrolidinyl)carbonyl)-2-methylpropyl)carbamate], 0.001 to 0.999 nM. The same measure, in the same setting: the same measure for `CNC(=O)c1nc([C@@H]2CCCN2C(=O)[C@H](C)NC(=O)OC)[nH]c1-c1ccc(-c2ccc(-c3cnc([C@@H]4CCCN4C(=O)[C@@H](C)NC(=O)OC)[nH]3)cc2)cc1` [Example J28, methyl ((1S)-2-((2S)-2-(5-(4′-(2-((2S)-1-(N-(methoxycarbonyl)-L-alanyl)-2-pyrrolidinyl)-4-(methylcarbamoyl)-1H-imidazol-5-yl)-4-biphenylyl)-1H-imidazol-2-yl)-l-pyrrolidinyl)-l-methyl-2-oxoethyl)carbamate]: 1 to 99 nM; for `CCN(CC)[C@@H](C(=O)N1CCC[C@H]1c1ncc(-c2ccc(-c3ccc(-c4cnc([C@@H]5CCCN5C(=O)[C@@H](c5ccccc5)N(CC)CC)[nH]4)cc3)cc2)[nH]1)c1ccccc1` [Example 21, (1R,1′R)-2,2′-(4,4′-biphenyldiylbis(1H-imidazole-5,2-diyl(2S)-2,1-pyrrolidinediyl))bis(N,N-diethyl-2-oxo-1-phenylethanamine)]: 0.001 to 0.999 nM. Consider `COC(=O)N[C@H](C(=O)N1CCC[C@H]1c1nc(-c2ccc(-c3ccc(-c4cnc([C@@H]5CCCN5C(=O)[C@@H](NC(=O)OC)C5CCOCC5)[nH]4)cc3)cc2)c[nH]1)C(C)C` [Example F58, methyl ((1S)-1-(((2S)-2-(4-(4′-(2-((2S)-1-((2S)-2-((methoxycarbonyl)amino)-2-(tetrahydro-2H-pyran-4-yl)acetyl)-2-pyrrolidinyl)-1H-imidazol-5-yl)-4-biphenylyl)-1H-imidazol-2-yl)-1-pyrrolidinyl)carbonyl)-2-methylpropyl)carbamate], for which the half-maximal effective concentration (EC50) fell in the range of 0.001 to 0.999 nM. The same measure, in the same setting: the same measure for `O=C(Nc1cccnc1)N[C@@H](C(=O)N1CCC[C@H]1c1ncc(-c2ccc(-c3ccc(-c4c[nH]c([C@@H]5CCCN5C(=O)[C@H]5CCCO5)n4)cc3)cc2)[nH]1)c1ccccc1` [Example 120-9, 1-((1R)-2-oxo-1-phenyl-2-((2S)-2-(5-(4′-(2-((2S)-1-((2R)-tetrahydro-2-furanylcarbonyl)-2-pyrrolidinyl)-1H-imidazol-4-yl)-4-biphenylyl)-1H-imidazol-2-yl)-1-pyrrolidinyl)ethyl)-3-(3-pyridinyl)urea]: 0.001 to 0.999 nM; for `CCN[C@@H](C(=O)N1CCC[C@H]1c1ncc(-c2ccc(-c3ccc(-c4c[nH]c([C@@H]5CCCN5C(=O)[C@H](C)NC(=O)OC)n4)cc3)cc2)[nH]1)c1ccccc1` [Example F41, methyl ((1S)-2-((2S)-2-(4-(4′-(2-((2S)-1-((2R)-2-(ethylamino)-2-phenylacetyl)-2-pyrrolidinyl)-1H-imidazol-5-yl)-4-biphenylyl)-1H-imidazol-2-yl)-1-pyrrolidinyl)-1-methyl-2-oxoethyl)carbamate]: 0.001 to 0.999 nM.

Source of the values: patent US8574563B2 (Bristol-Myers Squibb Company, priority 2006, dated 2013).
